Experimental data as given in patent US10857247B2, “Compounds and compositions for the detection and treatment of Alzheimer's disease and related disorders” (The General Hospital Corporation, priority 2008, dated 2020).
Like-named read-outs stand apart in the source and are kept apart here.

What was measured:
[1] = normal mice, iv, cited from earlier work
brain amyloid deposits = settings: APP23 transgenic mice, 180 min after iv injection; cited from earlier work
[2] = cited from earlier work
[3] = Biodistribution of [18F]fluoro-RS 86 in rats; type: in vivo
Experimental: As described above, 2-(2-methanesulfonylethyl)-8-methyl-2,8-diazaspiro[4,5]decane-1,3-dione was prepared in five steps. The RS-86 mesylate (2 mg) in acetonitrile (0.1 mL) was added to a sealed vial containing dried K^18F/kryptofix and heated at 120° C. for 10 min. The mixture was diluted with water (0.2 mL) and purified by HPLC (C-18 column 250×10 mm, flow 6 mL/min, PBS/acetonitrile (95:5). The fraction containing [^18F]fluoro-RS 86 was evaporated to dryness and the activity dissolved in PBS before filtering. Biodistribution was performed in rats at 5, 30 and 60 min.

SMILES: CNc1ccc(C=Cc2nc3ccc(OCCF)cc3o2)cc1 [BF-168, 6-(2-fluoroethoxy)-2-[2-(4-methylaminophenyl)ethenyl]-benzoxazole]
- Initial brain uptake ([1]; at 2 min after injection): 3.9 % injected dose/gm
- Clearance t1/2 ([1]; clearance from brain): 24.7 min
- Labeling in autoradiograms of brain sections (brain amyloid deposits): selective labeling of brain amyloid deposits with little non-specific binding

SMILES: CCN1C(=O)CC2(CCN([11CH3])CC2)C1=O [[^11C]RS-86]
- Brain uptake ([2]; comparison value for the C-11 labeled analog): 1%
- Initial brain uptake ([2]; rats, biodistribution as a function of time): about 1.1%

SMILES: O=C1CC2(CCNCC2)C(=O)N1CC[18F] [[^18F]fluoro-RS 86, [F-18]-N-2-fluoroethyl-2,8-diazaspiro[4,5]decane-1,3-dione]
- Brain uptake ([3]; 5 min): 0.27
- Brain uptake ([3]; 30 min): 0.54
- Brain uptake ([3]; 60 min): 0.48
- Blood uptake ([3]; at 30 min): 0.3%
- Liver uptake ([3]; at 30 min): 0.64%
- Stomach uptake ([3]; at 30 min): 0.90%
- Uptake in the kidneys (greatest uptake) ([3]; at 30 min): 2.5%
- Defluorination (uptake in bone) ([3]; bone at 30 min): 0.42%
- Brain uptake ([3]; restated in comparison with [11C]RS-86): 0.54%
